These results are taken from patent US11986000B2, “Whey protein extracts and their use as sphingomyelin source” (SOCIETE DES PRODUITS NESTLE S.A., priority 2017, dated 2024).

This data set can be described thus: Determination of total SM in raw materials and finished product by HPLC-ELSD. To be noted: analysed versus theoretical SM in infant formula powders. As for the experimental part: 1.2. Determination of Total SM in Raw Materials and Finished Product by HPLC-ELSD
Calibration standard stock solution was prepared by dissolving 140 mg of certified milk lecithin and 10 mg of PG (internal standard) in 100 mL of chloroform/methanol (9/1, v/v) solution. Further dilutions of this solution was performed in chloroform/methanol (9/1, v/v) to yield six standard levels, ranging from 0.012 to 0.249 g L−1 for SM and 0.005 to 0.100 g L^−1 for PG.
Sample extraction and chromatographic analysis, including chromatography columns and detector settings, were completed according to the procedure as described by Braun et al. (2010) with the following minor modifications. […] EZChrom software package (Agilent Technologies) was used to control the chromatograph and results were analysed using OpenLab software (Agilent Technologies).
SM was identified within the certified milk lecithin based on peak location in the elution sequence, retention time and characteristic peak shape, as described by Braun et al. (2010). […] A six-point calibration curve was prepared for both SM ([…], R^2=:=::0.996) and PG (0.025-0.507 g L^−1, R^2=:=::0.996) for quantification. […] Quantification of SM was as described by Braun et al. (2010) using the following equation: […]

On to sphingomyelin [SM], for which the “Stability of SM during the manufacturing processes” value was “stable against degradation”.
